Here are results for 15 compounds from ChEMBL document CHEMBL5523703, “Modulators for palmitoylation of proteins and small molecules” (Eur J Med Chem, 2024).

Test [1] in a line: Inhibition of SPT (unknown origin). Set-up: species or system Homo sapiens.
Test [2] in a line: Inhibition of SPT in mouse Neuro2a cells. The test is classed as cell-based.
Test [3] has as its target Carnitine O-palmitoyltransferase 2, mitochondrial (Rattus norvegicus, UniProt P18886). The test is described as follows: Inhibition of rat CPT2.
Test [4] concerns the target T1, Carnitine O-palmitoyltransferase 1, liver isoform (Homo sapiens, UniProt P50416).
T1 sequence (P50416 whole entry): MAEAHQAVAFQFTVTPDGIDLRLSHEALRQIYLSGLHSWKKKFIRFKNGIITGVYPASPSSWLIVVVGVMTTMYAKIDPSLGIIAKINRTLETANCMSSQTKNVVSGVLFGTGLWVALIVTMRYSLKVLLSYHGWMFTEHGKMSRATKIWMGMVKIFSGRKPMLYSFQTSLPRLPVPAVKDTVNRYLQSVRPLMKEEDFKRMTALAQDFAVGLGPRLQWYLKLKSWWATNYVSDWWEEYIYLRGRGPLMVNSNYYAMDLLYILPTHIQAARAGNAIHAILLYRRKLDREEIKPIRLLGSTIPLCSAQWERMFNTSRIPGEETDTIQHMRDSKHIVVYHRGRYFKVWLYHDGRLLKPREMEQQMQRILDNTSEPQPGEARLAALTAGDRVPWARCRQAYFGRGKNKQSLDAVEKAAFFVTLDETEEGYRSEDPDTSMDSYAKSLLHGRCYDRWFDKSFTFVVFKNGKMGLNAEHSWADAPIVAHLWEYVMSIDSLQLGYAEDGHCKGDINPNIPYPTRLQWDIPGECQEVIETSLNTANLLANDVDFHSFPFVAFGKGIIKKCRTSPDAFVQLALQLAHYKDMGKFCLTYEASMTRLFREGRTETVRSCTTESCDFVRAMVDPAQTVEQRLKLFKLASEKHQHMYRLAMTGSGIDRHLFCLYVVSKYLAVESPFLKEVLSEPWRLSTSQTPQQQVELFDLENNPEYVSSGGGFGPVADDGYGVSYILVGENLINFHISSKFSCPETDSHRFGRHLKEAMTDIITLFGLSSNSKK
The test is described as follows: Inhibition of CPT1 (unknown origin).

The target in test [5] is T2, Protein-cysteine N-palmitoyltransferase HHAT (Homo sapiens, UniProt Q5VTY9). The test is described as follows: Binding affinity to His-tagged HHAT (unknown origin) transfected in HEK293FT cells assessed as inhibition constant. The test is classed as cell-based.
The target in test [6] is T1, Carnitine O-palmitoyltransferase 1, liver isoform. The test is described as follows: Binding affinity to CPT1 (unknown origin) assessed as inhibition constant.
Test [7] concerns the target Serine palmitoyltransferase small subunit B (Homo sapiens, UniProt Q8NFR3). The experiment in a line: Inhibition of SPTSSB (unknown origin) expressed in HEK293T cells. The class given is cell-based.
Test [8] in a line: Inhibition of Candida albicans serine palmitoyltransferase.
Test [9] addresses Palmitoyltransferase ZDHHC9 (Homo sapiens, UniProt Q9Y397). The test is described as follows: Binding affinity to ZDHHC9 (unknown origin) assessed as inhibition constant.
The target of test [10] is T2, Protein-cysteine N-palmitoyltransferase HHAT. The experiment in a line: Inhibition of HHAT (unknown origin).
The target is the same in test [11]. The test is described as follows: Inhibition of His-tagged HHAT (unknown origin) transfected in HEK293FT cells. The class given is cell-based.
Test [12] concerns the target Transcriptional enhancer factor TEF-1 (Homo sapiens, UniProt P28347). The test is described as follows: Inhibition of N-terminal His-tagged human TEAD1 expressed in Escherichia coli BL21 (DE3) (209 to 424 residues) by affinity chromatography analysis.
For test [13], the species on record is Homo sapiens. The experiment in a line: Binding affinity to ZDHHC (unknown origin) assessed as inactivation constant.
Test [14] concerns the target T3, Carnitine O-palmitoyltransferase 1, muscle isoform (Homo sapiens, UniProt Q92523).
T3 sequence (Q92523 whole entry): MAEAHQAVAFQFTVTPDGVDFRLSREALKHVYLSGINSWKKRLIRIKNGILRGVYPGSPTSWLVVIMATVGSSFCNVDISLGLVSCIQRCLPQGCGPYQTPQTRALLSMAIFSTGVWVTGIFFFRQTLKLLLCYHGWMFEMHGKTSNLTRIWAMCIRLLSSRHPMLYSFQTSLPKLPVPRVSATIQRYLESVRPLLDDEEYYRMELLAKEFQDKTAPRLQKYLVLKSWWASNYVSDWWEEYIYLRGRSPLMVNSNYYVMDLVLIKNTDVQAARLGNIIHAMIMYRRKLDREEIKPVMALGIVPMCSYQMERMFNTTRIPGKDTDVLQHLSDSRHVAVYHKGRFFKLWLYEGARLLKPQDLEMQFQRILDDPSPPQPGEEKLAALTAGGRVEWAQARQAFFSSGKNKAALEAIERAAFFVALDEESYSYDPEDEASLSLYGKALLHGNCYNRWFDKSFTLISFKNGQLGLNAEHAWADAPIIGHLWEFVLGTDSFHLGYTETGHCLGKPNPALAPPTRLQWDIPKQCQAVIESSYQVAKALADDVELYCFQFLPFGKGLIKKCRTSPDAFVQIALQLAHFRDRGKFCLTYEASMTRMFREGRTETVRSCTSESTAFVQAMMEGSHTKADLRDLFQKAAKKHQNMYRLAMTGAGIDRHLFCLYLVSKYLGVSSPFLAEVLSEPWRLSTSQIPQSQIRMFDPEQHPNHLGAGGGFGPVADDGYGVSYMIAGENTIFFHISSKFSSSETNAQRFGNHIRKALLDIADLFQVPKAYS
The experiment in a line: Inhibition of CPT1B (unknown origin).

Test [15] concerns the target T4, Carnitine O-palmitoyltransferase 1, liver isoform (Rattus norvegicus, UniProt P32198).
T4 sequence (P32198 whole entry): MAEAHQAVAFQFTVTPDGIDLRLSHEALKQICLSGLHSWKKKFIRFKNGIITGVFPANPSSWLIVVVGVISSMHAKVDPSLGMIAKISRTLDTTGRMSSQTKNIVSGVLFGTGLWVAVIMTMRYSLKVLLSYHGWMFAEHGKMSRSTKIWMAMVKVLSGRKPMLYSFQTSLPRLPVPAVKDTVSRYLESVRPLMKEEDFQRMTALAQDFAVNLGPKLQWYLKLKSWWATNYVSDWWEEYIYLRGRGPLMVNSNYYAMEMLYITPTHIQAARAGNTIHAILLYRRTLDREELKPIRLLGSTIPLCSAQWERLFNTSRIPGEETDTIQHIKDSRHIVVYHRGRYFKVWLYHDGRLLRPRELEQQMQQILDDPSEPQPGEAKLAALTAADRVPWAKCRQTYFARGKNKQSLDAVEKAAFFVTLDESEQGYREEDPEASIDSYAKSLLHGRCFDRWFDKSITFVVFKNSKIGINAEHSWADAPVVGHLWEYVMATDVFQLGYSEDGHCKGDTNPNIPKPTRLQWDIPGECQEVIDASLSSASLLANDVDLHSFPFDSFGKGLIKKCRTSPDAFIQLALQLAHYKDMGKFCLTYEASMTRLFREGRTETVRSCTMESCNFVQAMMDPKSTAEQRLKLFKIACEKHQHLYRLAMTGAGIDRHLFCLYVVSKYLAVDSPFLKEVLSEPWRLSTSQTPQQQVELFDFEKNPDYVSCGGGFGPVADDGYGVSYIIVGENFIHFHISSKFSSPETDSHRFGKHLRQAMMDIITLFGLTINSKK
The test is described as follows: Binding affinity to rat liver mitochondria CPT1 assessed as inhibition constant incubated for 3 to 6 mins by Liquid scintillation counting method.

Test [16] has as its target Carnitine O-palmitoyltransferase 1, liver isoform (Homo sapiens) (UniProt P50416). The experiment in a line: Inhibition of CPT1 (unknown origin) at 10 uM relative to control.
Test [17] has as its target Tyrosine-protein kinase Lck (Homo sapiens, UniProt P06239). The test is described as follows: Inhibition of N-terminal human recombinant Lck expressed in baculovirus infected in Sf9 cells.

T2 sequence (Q5VTY9 whole entry, canonical isoform): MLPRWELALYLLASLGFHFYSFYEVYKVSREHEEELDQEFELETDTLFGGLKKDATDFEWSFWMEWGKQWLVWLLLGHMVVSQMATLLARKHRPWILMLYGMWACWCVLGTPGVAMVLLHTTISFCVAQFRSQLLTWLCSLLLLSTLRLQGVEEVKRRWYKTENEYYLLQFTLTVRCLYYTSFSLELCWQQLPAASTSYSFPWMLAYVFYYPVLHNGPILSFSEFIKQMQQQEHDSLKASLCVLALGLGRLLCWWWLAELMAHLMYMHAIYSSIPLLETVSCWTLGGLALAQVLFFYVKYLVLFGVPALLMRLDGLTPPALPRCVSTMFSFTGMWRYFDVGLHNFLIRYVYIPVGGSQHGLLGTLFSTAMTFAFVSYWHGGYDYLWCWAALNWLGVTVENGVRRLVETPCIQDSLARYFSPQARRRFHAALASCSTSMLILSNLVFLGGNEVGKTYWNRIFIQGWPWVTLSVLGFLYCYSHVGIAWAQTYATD
Chain of Transcriptional enhancer factor TEF-1 (P28347 whole entry, the tested form may be a part): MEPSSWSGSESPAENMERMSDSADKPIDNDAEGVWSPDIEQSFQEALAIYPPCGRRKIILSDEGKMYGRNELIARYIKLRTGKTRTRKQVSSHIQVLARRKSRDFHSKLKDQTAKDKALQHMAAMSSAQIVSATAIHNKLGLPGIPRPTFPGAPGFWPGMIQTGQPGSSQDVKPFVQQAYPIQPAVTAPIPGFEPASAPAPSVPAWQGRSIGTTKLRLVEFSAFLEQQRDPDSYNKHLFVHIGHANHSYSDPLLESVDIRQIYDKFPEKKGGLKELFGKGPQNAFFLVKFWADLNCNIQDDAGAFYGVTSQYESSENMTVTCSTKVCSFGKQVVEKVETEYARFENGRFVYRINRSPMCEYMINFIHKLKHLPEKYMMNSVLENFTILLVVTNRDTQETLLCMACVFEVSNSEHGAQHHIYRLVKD
Chain of Carnitine O-palmitoyltransferase 2, mitochondrial (P18886 whole entry, canonical isoform): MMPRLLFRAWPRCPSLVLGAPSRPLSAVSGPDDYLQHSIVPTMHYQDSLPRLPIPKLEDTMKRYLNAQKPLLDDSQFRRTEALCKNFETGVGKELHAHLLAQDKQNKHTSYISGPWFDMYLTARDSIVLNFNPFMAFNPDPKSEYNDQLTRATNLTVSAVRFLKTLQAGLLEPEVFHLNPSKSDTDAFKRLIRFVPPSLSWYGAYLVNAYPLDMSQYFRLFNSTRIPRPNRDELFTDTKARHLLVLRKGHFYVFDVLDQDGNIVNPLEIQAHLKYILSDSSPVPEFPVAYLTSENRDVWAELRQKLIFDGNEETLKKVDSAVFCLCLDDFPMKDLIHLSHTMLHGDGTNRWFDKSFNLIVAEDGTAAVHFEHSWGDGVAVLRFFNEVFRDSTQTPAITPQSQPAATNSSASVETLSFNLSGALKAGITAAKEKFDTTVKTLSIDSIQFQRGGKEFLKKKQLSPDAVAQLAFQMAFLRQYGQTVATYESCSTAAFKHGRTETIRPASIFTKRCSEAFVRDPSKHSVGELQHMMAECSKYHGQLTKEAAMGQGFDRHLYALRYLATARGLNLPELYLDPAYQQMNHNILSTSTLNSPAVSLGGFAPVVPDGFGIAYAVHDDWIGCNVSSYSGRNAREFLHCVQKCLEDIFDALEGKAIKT
Chain of Palmitoyltransferase ZDHHC9 (Q9Y397 whole entry): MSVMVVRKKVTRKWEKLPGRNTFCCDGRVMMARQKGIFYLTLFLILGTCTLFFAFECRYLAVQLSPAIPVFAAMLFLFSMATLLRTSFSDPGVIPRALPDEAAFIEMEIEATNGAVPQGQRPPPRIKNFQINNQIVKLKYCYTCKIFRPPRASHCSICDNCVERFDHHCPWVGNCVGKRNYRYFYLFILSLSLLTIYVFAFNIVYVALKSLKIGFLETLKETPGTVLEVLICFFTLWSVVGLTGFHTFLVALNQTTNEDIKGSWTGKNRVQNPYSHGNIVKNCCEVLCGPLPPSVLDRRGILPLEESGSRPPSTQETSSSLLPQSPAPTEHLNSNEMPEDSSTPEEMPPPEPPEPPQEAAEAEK
Chain of Serine palmitoyltransferase small subunit B (Q8NFR3 whole entry): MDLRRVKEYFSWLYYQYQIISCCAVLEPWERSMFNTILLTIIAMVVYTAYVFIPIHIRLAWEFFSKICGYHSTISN
Chain of Tyrosine-protein kinase Lck (P06239 whole entry): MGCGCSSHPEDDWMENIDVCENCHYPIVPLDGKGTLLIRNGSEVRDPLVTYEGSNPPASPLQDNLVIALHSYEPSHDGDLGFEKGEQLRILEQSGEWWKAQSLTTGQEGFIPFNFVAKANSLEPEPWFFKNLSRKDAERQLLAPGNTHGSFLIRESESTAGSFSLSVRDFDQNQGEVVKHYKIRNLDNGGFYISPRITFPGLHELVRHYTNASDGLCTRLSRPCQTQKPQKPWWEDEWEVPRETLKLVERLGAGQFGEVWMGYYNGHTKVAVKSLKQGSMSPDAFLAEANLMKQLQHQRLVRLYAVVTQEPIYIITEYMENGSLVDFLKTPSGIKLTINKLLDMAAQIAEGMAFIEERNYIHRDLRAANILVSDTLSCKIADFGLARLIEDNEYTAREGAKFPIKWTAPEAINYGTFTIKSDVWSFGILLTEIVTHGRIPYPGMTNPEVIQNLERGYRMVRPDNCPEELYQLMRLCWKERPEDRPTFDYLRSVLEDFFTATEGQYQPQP

In general, IC50 refers to the concentration at which inhibition is half-maximal. Take `CNC(=O)c1ccc2c(c1)CC(=O)N2C1CCN(CC(=O)N2CC3CCCC3C2)CC1` (stereo not drawn): the IC50 was found to be 0.0273 µM in test [1] and 9.5 µM in test [2].
As to `N[C@H](C(=O)O)c1ccc(O)cc1` [OXFENICINE], the concentration for half-maximal inhibition (IC50) in test [3] came to 79 µM; in test [4] it was 11 µM.
As usually defined, the Ki is the dissociation constant of the complex between target and ligand, obtained from inhibition or displacement. Turning to `CCC(C)CNCC(=O)N1CCc2sccc2C1COc1cccc(C)c1` (stereo not drawn), the inhibition constant Ki in test [5] was determined as 7.4 µM.
Turning to `CCCCCCCCCCCCCCNC(=O)N[C@H](CC(=O)[O-])C[N+](C)(C)C`, the Ki in test [6] was found to be 0.36 µM. This compound came in with a half-inhibitory concentration (IC50) in [4] of 0.68 µM.
With `CC(C)=CCC[C@]1(C)C=Cc2c(O)c3c(c(CC=C(C)C)c2O1)O[C@]12C(=C[C@@H]4C[C@H]1C(C)(C)O[C@@]2(C/C=C(/C)C(=O)O)C4=O)C3=O` [GAMBOGIC ACID], half-maximal inhibition in test [7] (IC50) was put at 2.18 µM.
In [8], `CCCCCCCC(=O)CCCCCC/C=C/[C@H](C(=O)N[C@@H](Cc1ccc(O)cc1)C(=O)O)[C@@](O)(CC(=O)O)C(=O)O` came in with an IC50 of 0.022 µM.
For `CC(C)Cc1ccc(C(C)CN2CCN(CCCC[C@H]3CNCCN3CCc3cc(C(F)(F)F)cc(C(F)(F)F)c3)C[C@@H]2Cc2ccc(O)cc2)cc1` (stereo partly drawn), the Ki in test [9] is 66 µM.
In turn, `CCC(C)CNCC(=O)N1CCc2sccc2C1c1cccc(C)c1` (stereo not drawn) had a concentration for half-maximal inhibition (IC50) in [10] of 0.46 µM.
For `C=CCNCC(=O)N1CCc2sccc2C1COc1ccc(Cl)c(C)c1` (stereo not drawn), it took 0.18 µM to reach half-maximal inhibition in test [11] (IC50).
With `C=CC(=O)N1C[C@@H](n2cc(C3CCOCC3)nn2)[C@H](OCc2ccc(C(F)(F)F)cc2)C1`, in test [12], the IC50 is 0.045 µM.
As to `N[C@H]1CONC1=O`, the Kinact in test [13] was 0.83 M⁻¹ s⁻¹.
`COc1ccc(CN2CCN(CCCSc3cc(C(C)(C)C)c(O)c(C(C)(C)C)c3)CC2)c(OC)c1OC` had an IC50 in test [14] of 16.8 µM.
On to `CCCCCCCCCCCCCCCC1(O)C[C@H](CC(=O)[O-])C[N+](C)(C)C1` (single isomer, unassigned), for which the Ki in test [15] came to 4.2 µM.
The inhibition is the relative decrease from the control value, in per cent. Low values mean a response near the control, high ones a response far below the control. For the compound `CCCCCCCCCCCCCC[C@]1(C(=O)O)CO1`, the inhibition in test [16] was found to be 66%.
In the case of `CCCCCCCCCCCCCCC(Br)C(=O)O` (stereo not drawn), the 50% inhibitory concentration (IC50) in test [17] worked out at 10 µM.
